In publication PMC7378375, “High-Throughput Screening of a Functional Human CXCL12-CXCR4 Signaling Axis in a Genetically Modified S. cerevisiae: Discovery of a Novel Up-Regulator of CXCR4 Activity” (Frontiers in Molecular Biosciences, 2020):

Molecular target: CXCL12 (Homo sapiens, UniProt P48061)
Assay: 1H-15N HSQC NMR titration of […]-CXCL12 (global fit of eight resonances, pH […]); supported by SEC-MALS
Type: binding

CXCL12, sequence (P48061 22-88): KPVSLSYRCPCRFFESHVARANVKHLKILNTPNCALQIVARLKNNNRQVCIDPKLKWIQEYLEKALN

Kd: 147 µM
SMILES: O=C(O)c1ccccc1OP(=O)(O)O [fosfosal, 2-(phosphonooxy) benzoic acid]
